Test [1] has as its system vancomycin-resistant E. faecium. It is filed as cell-based, Enterococcus faecium. As to conditions: for synergy of the AMPs with the antibiotic: antibiotic combined with supernatant containing the three AMPs, data not shown; for activity of antibiotic alone against E. faecium: clinically relevant concentrations: 50 μg/mL streptomycin, 100 μg/mL ampicillin, 30 μg/mL rifampicin; for reduction of E. faecium counts, antibiotic combined with the three peptides: combination with Enterocin A, Enterocin P, Hiracin JM79. The method, then:
L. lactis containing pNZCA3 was grown overnight in BHI. Cells were then re-inoculated in fresh BHI at an OD600 of 0.07-0.1. Because BHI contains ˜0.15 M NaCl, no additional salt was added for induction. Cells were then grown ˜6 hours then cell-free culture supernatant was obtained by centrifugation of culture at 12,000×g at 4° C. for 10 min, filtered through 0.2 μm pore-size filters (Whatman Int. Ltd., Maidstone, UK), and stored at −20° C. until use.
E. faecium was grown overnight in BHI at 37° C. and L. lactis-pNZCA3 was grown in BHI at 32° C. E. faecium was then inoculated at an OD600 of ˜0.06 into 5 ml fresh BHI broth, and allowed to grow to an OD600 of ˜0.1. For antibiotic experiments, 50 μg/mL streptomycin (Chem-Implex Int'l Inc., Wood Dale, Ill., U.S.A.), 100 μg/mL ampicillin (Sigma), or 30 μg/mL rifampicin (Gilbert et al., 2013, The Sanford Guide to Antimicrobial Therapy 2013 43 Pocth Edition|Rent 9781930808744|11930808747. Antimicrob. Ther.) were added to the fresh BHI broth. Cultures were then supplemented with 10% of the previously obtained supernatant or 10% of L. lactis-pNZCA3 culture at an OD600 of ˜0.1 (time=0 hours). […] Samples of the cultures were then taken at different times, serial diluted, and plated (10 μL of each dilution) on GM17 plates containing 5 μg/mL rifampicin (GM17-Rif) or 5 μg/mL chloramphenicol (GM17-Cm) and incubated overnight at 37° C. The following day E. faecium or L. lactis colony forming units (CFU) were counted on GM17-Rif and GM17-Cm plates, respectively.
Data for FIG. 9 represent technical triplicates obtained from one of three individual tests.

Test [2] concerns wild type E. faecium 8E9 and EntA/EntP/HirJM79-resistant mutant of E. faecium 8E9. The test is described as follows: Agar diffusion assay of pure Enterocin B. As to conditions: 1 μg and 0.1 μg enterocin B. Type of test: cell-based, Enterococcus faecium. As for the experimental part: For the agar diffusion activity assays, liquid brain heart infusion (BHI) agar was inoculated with 0.5 μL of E. faecium overnight culture per mL medium. The inoculated agar was then poured into a petri dish and allowed to solidify. For all L. lactis halos, a colony of L. lactis was touched with a sterile pipette tip then stabbed into the inoculated agar. For purified EntB halos (FIG. 14 only), 1 μL of the appropriate EntB concentration was dropped onto the inoculated agar and allowed to dry completely. Dry plates were then covered and incubated overnight at 37° C. for imaging the following day.
Background: In agar diffusion tests the substance spreads into inoculated agar from a disc or well.

Bridge positions count the residues as written; N and C are the ends. Ends that are not written are not given here.

As for `[H]/N=C(/N)N[C@H]1[C@H](O)[C@@H](O)[C@H](O[C@@H]2O[C@@H](C)[C@](O)(C=O)[C@H]2O[C@@H]2O[C@@H](CO)[C@H](O)[C@@H](O)[C@@H]2NC)[C@@H](N/C(N)=N\[H])[C@@H]1O` [streptomycin], in test [1], the “synergy of the AMPs with the antibiotic” value is given as “minor” and the “activity of antibiotic alone against E. faecium” value is given as “none of these drugs showed significant activity”.
Take `O=C(N[C@H](CO)[C@H](O)c1ccc([N+](=O)[O-])cc1)C(Cl)Cl` [chloramphenicol]: the “reduction of E. faecium counts, antibiotic combined with the three peptides” value (“reduction of E. faecium counts” below) in test [1] is recorded as “did not exhibit similarly impressive reductions”.
In the case of `CC1(C)S[C@@H]2[C@H](NC(=O)[C@H](N)c3ccccc3)C(=O)N2[C@H]1C(=O)O` [ampicillin], in test [1], the “synergy of the AMPs with the antibiotic” value was “minor”; the “activity of antibiotic alone against E. faecium” value is given as “none of these drugs showed significant activity”; the “reduction of E. faecium counts” value is “did not exhibit similarly impressive reductions”.
In the case of `CC[C@H]1OC(=O)[C@H](C)[C@@H](O[C@H]2C[C@@](C)(OC)[C@@H](O)[C@H](C)O2)[C@H](C)[C@@H](O[C@@H]2O[C@H](C)C[C@H](N(C)C)[C@H]2O)[C@](C)(O)C[C@@H](C)C(=O)[C@H](C)[C@@H](O)[C@]1(C)O` [erythromycin], in test [1], the “reduction of E. faecium counts” value is reported as “did not exhibit similarly impressive reductions”.
On to “Enterocin B: 53 amino acid bacteriocin of Enterococcus faecium, SEQ ID NO:42, disulfide bridge 23-52, synthesized by Ontores (ENDHRMPNELNRPNNLSKGGAKCGAAIAGGLFGIPKGPLAWAAGLANVYSKCN; disulfide 23-52)”, for which the “halo size, wild type versus class IIa resistant mutant” value in test [2] is “similarly sized halos for both the wild type and resistant mutant”.

(Values after patent publication US20160279175A1, “METHODS FOR REDUCING DEVELOPMENT OF RESISTANCE TO ANTIBIOTICS” (REGENTS OF THE UNIVERSITY OF MINNESOTA, priority 2015, published 2016).)
